Test results as given in publication PMC5443859, “EGFR-targeting peptide-coupled platinum(IV) complexes” (Journal of Biological Inorganic Chemistry, 2017).

What was measured:
RUMH cells = assay: cells; assay type: cell-based; conditions: Homo sapiens, EGFR/wt overexpression, 72 h treatment, MTT assay
Method: (§1) The following human cell models were used in this study: the renal cell carcinomas RUMH, the squamous cell carcinoma H520, the epidermoid carcinoma A431, as well as the non-small-cell lung cancer (NSCLC) line HCC827 (sources and used medium are summarized in (Table 2). Unless otherwise indicated, the cells were cultivated in humidified incubators (37 °C, 21% O2, 5% CO2) in full culture medium, containing 10% fetal calf serum (PAA, Linz, Austria). Cell cultures were periodically checked for Mycoplasma contamination.
(§2) Subsequently, the dissolved drugs were added. […] Cytotoxicity was expressed as IC50 values calculated from full dose–response curves using GraphPad Prism software. […] Then, the cells were exposed to the indicated drugs (25 or 50 µM) for 14 days. After washing with phosphate-buffered saline (PBS), the cells were fixed with methanol (−20 °C, 20 min) and after another washing step stained with crystal violet (1 h). […] The sum of fluorescence intensities per well was measured with ImageJ and, after blank subtraction, normalized to the untreated cells.

H520 cells = assay: cells; conditions: Homo sapiens, NCI-H520, 72 h, read-out: IC50 ± SD
Method: as §1, §2

A431 cells = assay: Long-term clonogenic assay, 14 days; assay type: cell-based, human; conditions: 25 and 50 µM, crystal violet, three experiments in duplicates, result in words
Method: Subsequently, the dissolved drugs were added.

| SMILES | IC50 (RUMH cells) [µM] | IC50 (H520 cells) [µM] | long-term treatment effect, normalized to untreated cells (A431 cells) |
| --- | --- | --- | --- |
| C#Cc1cccc(Nc2ncnc3cc(OCCOC)c(OCCOC)cc23)c1 [Erlotinib, erlotinib] | 23 ± 2.6 | > 25 | – |
| O=C1[O][Pt]2([NH][C@@H]3CCCC[C@H]3[NH]2)[O]C1=O [oxaliplatin] | – | – | too low to be seen in this graph |
